Reference: ChEMBL document CHEMBL4184135, “Waspergillamide A, a Nitro depsi-Tetrapeptide Diketopiperazine from an Australian Mud Dauber Wasp-Associated Aspergillus sp. (CMB-W031)” (J Nat Prod, 2017)
The source made the active and inactive calls.

How the values were obtained:
Escherichia coli = assay: Antimicrobial activity against Escherichia coli ATCC 25922 assessed as inhibition of microbial growth at 0.125 to 32 ug/mL incubated for 24 hrs by broth micro-dilution method; format: functional, organism-based
SW-620 = assay: Cytotoxicity against human SW620 cells assessed as inhibition of cell growth at 10 nM to 30 uM incubated for 72 hrs by MTT assay; format: functional, cell-based
KB 3-1 = assay: Cytotoxicity against human KB-3-1 cells assessed as inhibition of cell growth at 10 nM to 30 uM incubated for 72 hrs by MTT assay; format: functional, cell-based
NCI-H460 = assay: Cytotoxicity against human NCI-H460 cells assessed as inhibition of cell growth at 10 nM to 30 uM incubated for 72 hrs by MTT assay; format: functional, cell-based
Staphylococcus aureus = assay: Antimicrobial activity against Staphylococcus aureus ATCC 25923 assessed as inhibition of microbial growth at 0.125 to 32 ug/mL incubated for 24 hrs by broth micro-dilution method; format: functional, organism-based
Pseudomonas aeruginosa = assay: Antimicrobial activity against Pseudomonas aeruginosa ATCC 27853 assessed as inhibition of microbial growth at 0.125 to 32 ug/mL incubated for 24 hrs by broth micro-dilution method; format: functional, organism-based

Measured: growth inhibition (GI)

CC(C)/C=C1\NC(=O)[C@@H](C(C)(C)OC(=O)CNC(=O)c2ccc([N+](=O)[O-])cc2)NC1=O
inactive: all assays above
